Values quoted from earlier work in patent publication US7205293B2, “Benodiazepine spirohydantoin CGRP receptor antagonists” (Merck & Co., Inc., priority 2003, dated 2007).
No end group written: not given here.

Experiments:
[1] = tested on: middle meningeal artery diameter; details: rats, electrical stimulation of the dura mater, prior administration
facial blood flow [2] = details: rat, trigeminal ganglion stimulation
facial blood flow [3] = details: marmoset, electrical stimulation of the trigeminal ganglion

| Compound | effect on increase of middle meningeal artery diameter [1] | effect on increase of facial blood flow (facial blood flow [2]) | effect on increase in facial blood flow (facial blood flow [3]) |
| --- | --- | --- | --- |
| CGRP(8–37): a peptide CGRP antagonist (VTHRLAGLLSRSGGVVKNNFVPTNVGSKAF; ends and bridges not checked; UniProt P06881 90-119, looked up, fragment) | blocked | inhibited |  |
| NCCCC[C@H](NC(=O)[C@@H](Cc1cc(Br)c(O)c(Br)c1)NC(=O)N1CCC(N2Cc3ccccc3NC2=O)CC1)C(=O)N1CCN(c2ccncc2)CC1 [BIBN4096BS] |  |  | blocked |
